From patent publication US4764522A, “Ethylenediamine monoamides” (Hoffmann-La Roche Inc., priority 1984, dated 1988) come the findings set out here.

Structures can show the parent of a compound that is named as a salt. Where two headings read alike, the source gives them in different places.

The nature of data set [1]: toxicity (LD50), p.o. in the mouse. The note with it: in vivo, po. The method, then:
The MAO inhibiting activity of the compounds in accordance with the invention can be determined using standard methods. Thus, the substances to be tested were administered p.o. to rats. Two hours thereafter the animals were killed and the MAO inhibiting activity was measured in homogenates of the brain according to the method described in Biochem. Pharmacol. 12 (1963) 1439-1441, but using phenethylamine (2.10^-5 mol.1^-1) in place of tyramine as the substrate. The thus-determined activity of some compounds in accordance with the invention as well as their toxicity are evident from the following ED50 values (μmol/kg, p.o. in the rat) and LD50 values (mg/kg, p.o. in the mouse), respectively: […]

Data set [2] concerns the target T1, monoamine oxidase (MAO) (Rattus norvegicus, UniProt P19643).
T1 construct: from tissue; host or cells: rat brain homogenate (ex vivo, two hours after p.o. dosing)
T1 sequence (P19643 1-520): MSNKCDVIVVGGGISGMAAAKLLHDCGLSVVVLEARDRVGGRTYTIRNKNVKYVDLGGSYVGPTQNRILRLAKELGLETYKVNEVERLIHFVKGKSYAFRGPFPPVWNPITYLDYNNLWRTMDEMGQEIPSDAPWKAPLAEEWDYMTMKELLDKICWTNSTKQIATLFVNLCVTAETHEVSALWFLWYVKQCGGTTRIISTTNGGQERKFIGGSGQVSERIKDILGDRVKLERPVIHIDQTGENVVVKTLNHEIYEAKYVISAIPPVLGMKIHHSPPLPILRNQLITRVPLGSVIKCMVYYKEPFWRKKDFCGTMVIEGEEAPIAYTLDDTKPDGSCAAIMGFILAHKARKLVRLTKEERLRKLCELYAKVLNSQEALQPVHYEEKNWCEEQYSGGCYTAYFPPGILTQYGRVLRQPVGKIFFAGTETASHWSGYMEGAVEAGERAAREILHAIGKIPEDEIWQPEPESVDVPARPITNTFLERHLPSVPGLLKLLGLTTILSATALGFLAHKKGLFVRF
Briefly: MAO inhibiting activity measured in homogenates of the brain two hours after p.o. administration to rats (phenethylamine as substrate). In kind it is in vivo. To be noted: po, read-out: ED50 (MAO inhibiting activity). The method, then: The MAO inhibiting activity of the compounds in accordance with the invention can be determined using standard methods. Thus, the substances to be tested were administered p.o. to rats.

What is called LD50 is the dose expected to kill half of the subjects tested. High values mean lower toxicity, low ones greater toxicity. Broadly, the ED50 is the dose that gives a 50% effect, or the effect in half of the subjects. As for `Cl.NCCNC(=O)c1cccc(Br)n1` [N-(2-aminoethyl)-6-bromopyridine-2-carboxamide hydrochloride], in data set [1], the median lethal dose (LD50) lay in the range of 1000 to 2000 mg/kg. The median effective dose (ED50) in data set [2] (rat, 2 h) was 8 µmol/kg.
As to `Cl.NCCNC(=O)c1ccc(Cl)cn1` [N-(2-aminoethyl)-5-chloropyridine-2-carboxamide hydrochloride], the LD50 in data set [1] was in the range of 1000 to 2000 mg/kg.
With `Cl.Cl.NCCNC(=O)c1ccccn1` [N-(2-aminoethyl)-pyridine-2-carboxamide dihydrochloride], the LD50 in data set [1] was more than 4000 mg/kg. In addition, the ED50 in data set [2] (rat, 2 h) came out at 1.7 µmol/kg.
The corresponding values for `Cl.NCCNC(=O)c1cc(Cl)ccn1` [N-(2-aminoethyl)-4-chloropyridine-2-carboxamide hydrochloride] are 1250 to 2500 mg/kg and 5 µmol/kg.
`Cc1cc(C(=O)NCCN)no1.Cl` [N-(2-aminoethyl)-5-methylisoxazole-3-carboxamide hydrochloride] had an LD50 in data set [1] of more than 4000 mg/kg. Further, in data set [2] (rat, 2 h), the ED50 was determined as 20 µmol/kg.
For `Cl.NCCNC(=O)c1cc(Br)ccn1` [N-(2-aminoethyl)-4-bromopyridine-2-carboxamide hydrochloride], in that order: 1000 to 2000 mg/kg and 4 µmol/kg.
For `Cl.Cl.NCCNC(=O)c1ncccc1N` [N-(2-aminoethyl)-3-aminopyridine-2-carboxamide dihydrochloride], in that order: 2500 to 5000 mg/kg and 5 µmol/kg.
As for `Cl.NCCNC(=O)c1ncsc1Br` [N-(2-aminoethyl)-5-bromothiazole-4-carboxamide hydrochloride], in data set [1], the LD50 is 1250 to 2500 mg/kg. Also, the 50% effective dose (ED50) in data set [2] (rat, 2 h) turned out to be 10 µmol/kg.
Compound `NCCNC(=O)c1cccc(Cl)n1` [N-(2-aminoethy)-6-chloropyridine-2-carboxamide hydrochloride] came in with an LD50 in data set [1] of 625 to 1250 mg/kg. For the same compound, in data set [2] (p.o. in the rat, brain homogenates 2 hours after administration, substrate phenethylamine 2.10^-5 mol.1^-1), the ED50 was 10 µmol/kg.
On to `Cl.NCCNC(=O)c1csc(Cl)n1` [N-(2-aminoethyl)-2-chlorothiazole-4-carboxamide hydrochloride], for which, in data set [1], the LD50 was in the range of 2500 to 5000 mg/kg. Moreover, the ED50 in data set [2] (rat, 2 h) worked out at 6 µmol/kg.
